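Where inhibition never reached the appropriate level, the endpoint shown equals the highest concentration tested. Otherwise, values were interpolated linearly from a five-concentration, 48-hour dose response in 96-well plates. TGI: total growth inhibition.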

Holding throughout (assay): DTP human tumour cell line panel, 48 h
For experiment [1], the system named is DU-145 prostate.
In experiment [2] the test system is HCC-2998 colon.
Experiment [3] relates to MALME-3M melanoma.
Experiment [4] relates to MDA-MB-231 breast.
Experiment [5] relates to NCI-H522 lung.
Experiment [6] relates to OVCAR-3 ovarian.
The test system of experiment [7] is OVCAR-4 ovarian.
Experiment [8] relates to SN12C renal.
The test system of experiment [9] is TK-10 renal.
The subject of experiment [10] is UACC-62 melanoma.

With `O=C1CCCc2cc3c(cc21)CC1(C3)Cc2ccc3c(c2C1)C(=O)CCC3` (stereo unspecified), the TGI (as a rule, the concentration giving total growth inhibition) in [1] was > 100 µM; in [2], > 100 µM; in experiment [3] it was 43.6 µM; in experiment [4] it was > 100 µM; in experiment [5], > 100 µM; in experiment [6] it was 69.9 µM. Also, the total growth inhibition concentration (TGI) in experiment [7], in experiment [8] and in experiment [9] was > 100 µM throughout.
Consider `COC(=O)C1=C(O)C(C(=O)OC)[C@@]2(O)[C@@H](C(=O)OC)[C@H](C)[C@@H](C)[C@@H]1[C@@H]2C(=O)OC` (stereo partly specified), for which the TGI is > 100 µM in experiment [1]; > 100 µM in experiment [2]; > 100 µM in experiment [3]; > 100 µM in experiment [4]; 92.2 µM in experiment [5]; 78.2 µM in experiment [6]. Also, the TGI in experiment [8], in experiment [9] and in [10] was > 100 µM throughout.
With `COC(=O)C1(Cc2ccc3c(c2)CCC3)Cc2cc3c(cc2C1)CCC3`, the total growth inhibition concentration (TGI) in experiment [1] is > 100 µM; in experiment [2], 57.5 µM; in [4] it was > 100 µM; in [5], 56.5 µM; in experiment [6], > 100 µM; in experiment [7] it was 89.3 µM. Further, the TGI in [8], in [9] and in experiment [10] was > 100 µM each time.
As for `O=C1CCc2ccc3c(c21)CC1(Cc2ccccc2C1)C3`, the total growth inhibition concentration (TGI) in [1] is > 100 µM; in experiment [2], 49.3 µM; in experiment [3], 70.5 µM; in experiment [4], 40.2 µM; in experiment [5], 92.4 µM; in experiment [6], 28.8 µM. Also, the values for the TGI in [7], in experiment [8] and in experiment [9] were > 100 µM, > 100 µM and 99.3 µM, respectively.
Consider `COc1cc(CNc2nc3cc(C(F)(F)F)ccc3nc2-c2ccccc2)cc(OC)c1OC`, for which the total growth inhibition concentration (TGI) in [1] is > 100 µM; in [2] it was 52.4 µM; in experiment [3], 72 µM; in experiment [4] it was 67.5 µM; in experiment [5], > 100 µM; in [6], > 100 µM. Also, the values for the total growth inhibition concentration (TGI) in experiment [8], in experiment [9] and in experiment [10] were > 100 µM, > 100 µM and 33.3 µM, respectively.
`COc1ccc(N=NC(=Nc2ccc(F)cc2)c2ccc(N(CCC#N)CCC#N)cc2)cc1`: the TGI was > 100 µM in experiment [1]; 51.5 µM in [2]; 52.8 µM in experiment [4]; 47 µM in experiment [5]; > 100 µM in experiment [6]; > 100 µM in [7]. The results for the total growth inhibition concentration (TGI) in experiment [8], in [9] and in experiment [10] were > 100 µM, > 100 µM and 57.3 µM, respectively.
Take `Cc1c(C#N)c(N)n(C2OCC(O)C(O)C2O)c(=S)c1C#N` (stereo unspecified): the concentration for total growth inhibition (TGI) in [1], in experiment [2], in [3], in [4], in experiment [5] and in [6] was > 100 µM each time. Moreover, the concentration for total growth inhibition (TGI) in [8], in experiment [9] and in [10] was > 100 µM each time.
With `Cc1cn([C@H]2C[C@](C)(CO)N(C)O2)c(=O)[nH]c1=O`, the TGI in [1], in [2], in [3], in experiment [4], in [5] and in experiment [7] was > 100 µM each time. The TGI in experiment [8], in experiment [9] and in [10] was > 100 µM in each case.
For the compound `CC(C)(C)OC(=O)C1C(=O)NC(=O)CC1C(COCc1ccccc1)OCc1ccccc1` (stereo unspecified), the TGI in experiment [1] is > 100 µM; in experiment [2], 47.7 µM; in experiment [3] it was 35.5 µM; in [4] it was 36.4 µM; in experiment [5] it was 35.8 µM; in [6], 46.3 µM. In addition, in experiment [9], the TGI is > 100 µM.
On to `O=c1n(Cc2ccccc2)c(=O)n2c(=O)n(Cc3ccccc3)c(=O)n12`, for which the TGI in experiment [1], in experiment [2], in experiment [3], in experiment [4], in [5] and in experiment [7] was > 100 µM throughout. Further, the concentration for total growth inhibition (TGI) in [8], in [9] and in experiment [10] was > 100 µM in each case.
As for `CCCOC(=O)NC(C)C(=O)NC(CCC(=O)NC(CCCC(N)C(=O)O)C(=O)NC(C)C(=O)O)C(=O)O` (stereo unspecified), the total growth inhibition concentration (TGI) in experiment [1] is 65.3 µM; in experiment [2] it was 34.8 µM; in experiment [4], 50.8 µM; in experiment [5], > 100 µM; in experiment [6], > 100 µM; in experiment [7], 70.6 µM. The concentration for total growth inhibition (TGI) in experiment [8] was > 100 µM; in [9] it was > 100 µM; in experiment [10] it was 33.7 µM.
On to `O=C(c1ccccc1)N1C(=S)N=C(Nc2ccccc2)C1=Nc1ccccc1`, for which the TGI in experiment [1], in experiment [2], in [3], in [4], in experiment [5] and in experiment [7] was > 100 µM in each case. In addition, the TGI in experiment [8], in experiment [9] and in experiment [10] was > 100 µM each time.

Values taken from PubChem BioAssay (NCI).
